The numbers were not newly measured in patent US20190054079A1, “ENHANCEMENT OF IMPAIRED MOTOR AND MENTAL FUNCTIONS, USING DEXTROMETHORPHAN AND OXIDASE ENZYME INHIBITOR” (Avanir Pharmaceuticals, Inc., priority 2004, published 2019), which cites them from elsewhere.

Data set [1] relates to patients suffering from neurological disorders (such as ALS). To be noted: DM alone, late 1980's and early 1990's.
The target of the next data set is P450-2D6 enzyme (Homo sapiens, UniProt P10635). The settings on record: among known drugs in Inaba et al 1985 and 1986.
P450-2D6 enzyme, sequence (P10635 whole entry): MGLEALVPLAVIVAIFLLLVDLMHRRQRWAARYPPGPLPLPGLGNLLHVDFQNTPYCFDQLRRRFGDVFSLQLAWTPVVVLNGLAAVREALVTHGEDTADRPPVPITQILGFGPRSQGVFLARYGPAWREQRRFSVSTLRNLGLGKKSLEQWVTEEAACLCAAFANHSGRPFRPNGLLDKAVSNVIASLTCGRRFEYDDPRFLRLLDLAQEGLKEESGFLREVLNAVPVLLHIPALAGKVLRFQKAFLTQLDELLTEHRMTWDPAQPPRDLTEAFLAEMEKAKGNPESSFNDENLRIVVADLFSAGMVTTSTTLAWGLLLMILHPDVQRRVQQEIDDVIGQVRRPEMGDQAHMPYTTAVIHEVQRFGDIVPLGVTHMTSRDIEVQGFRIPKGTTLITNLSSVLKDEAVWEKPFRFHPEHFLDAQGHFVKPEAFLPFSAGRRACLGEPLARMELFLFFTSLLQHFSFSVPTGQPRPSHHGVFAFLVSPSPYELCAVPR

Molecules are shown by their SMILES.

`COc1ccc2c(c1)[C@@]13CCCC[C@H]1[C@@H](C2)N(C)CC3` [Dextromethorphan, (+)-3-methoxy-N-methylmorphinan]: the “benefit in slowing progression of neurological diseases” value in data set [1] is given as “did not show enough benefits”. Also, the “activity at NMDA receptors” value in the data set on NMDA receptors is “mildly suppresses activity”. Further, in the data set on sigma receptors, the “activity at sigma receptors” value is “stimulates activity”.
Regarding `C=C[C@H]1C[N@@]2CC[C@H]1C[C@@H]2[C@@H](O)c1ccnc2ccc(OC)cc12` [quinidine], the “potency of P450-2D6 inhibition” value at P450-2D6 enzyme is recorded as “most potent P450-2D6 inhibitor”.
